Assay results: PubChem BioAssay (NCI)
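Compound exposure: 48 hours, 5 concentrations, 96-well plates. The concentration for 50% growth inhibition is given as GI50. TGI: total growth inhibition.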

How the values were obtained:
Experiment in all cases: NCI tumour cell line growth inhibition, 48 h
HOP-92 NSCLC = system: HOP-92 NSCLC
HCC-2998 colon = system: HCC-2998 colon
MOLT-4 leukemia = system: MOLT-4 leukemia
SK-MEL-2 melanoma = system: SK-MEL-2 melanoma
SNB-75 CNS = system: SNB-75 CNS
ACHN renal = system: ACHN renal
NCI-H226 lung = system: NCI-H226 lung
RXF 393 renal = system: RXF 393 renal
U251 CNS = system: U251 CNS
NCI-H460 lung = system: NCI-H460 lung
CCRF-CEM leukemia = system: CCRF-CEM leukemia
NCI-H23 lung = system: NCI-H23 lung
HL-60(TB) leukemia = system: HL-60(TB) leukemia
MDA-MB-435 = system: MDA-MB-435
HT29 colon = system: HT29 colon
UACC-62 melanoma = system: UACC-62 melanoma
SNB-19 CNS = system: SNB-19 CNS
SW-620 colon = system: SW-620 colon
A498 renal = system: A498 renal
IGROV1 ovarian = system: IGROV1 ovarian
HOP-62 NSCLC = system: HOP-62 NSCLC
NCI/ADR-RES ovarian = system: NCI/ADR-RES ovarian
OVCAR-8 ovarian = system: OVCAR-8 ovarian
SK-OV-3 ovarian = system: SK-OV-3 ovarian
BT-549 breast = system: BT-549 breast
SF-268 CNS = system: SF-268 CNS
UO-31 renal = system: UO-31 renal
K-562 leukemia = system: K-562 leukemia
786-0 renal = system: 786-0 renal
OVCAR-3 ovarian = system: OVCAR-3 ovarian
NCI-H522 lung = system: NCI-H522 lung
SK-MEL-5 melanoma = system: SK-MEL-5 melanoma
OVCAR-5 ovarian = system: OVCAR-5 ovarian
OVCAR-4 ovarian = system: OVCAR-4 ovarian
M14 melanoma = system: M14 melanoma
PC-3 prostate = system: PC-3 prostate
TK-10 renal = system: TK-10 renal
MALME-3M melanoma = system: MALME-3M melanoma
MCF7 breast = system: MCF7 breast
HS 578T breast = system: HS 578T breast
KM12 colon = system: KM12 colon
COLO 205 colon = system: COLO 205 colon
DU-145 prostate = system: DU-145 prostate
T-47D breast = system: T-47D breast
SF-295 CNS = system: SF-295 CNS
LOX IMVI melanoma = system: LOX IMVI melanoma
HCT-15 colon = system: HCT-15 colon
SN12C renal = system: SN12C renal
RPMI-8226 leukemia = system: RPMI-8226 leukemia
EKVX NSCLC = system: EKVX NSCLC
SF-539 CNS = system: SF-539 CNS
UACC-257 melanoma = system: UACC-257 melanoma
HCT-116 colon = system: HCT-116 colon
SK-MEL-28 melanoma = system: SK-MEL-28 melanoma
CAKI-1 renal = system: CAKI-1 renal
SR leukemia = system: SR leukemia
MDA-MB-231 breast = system: MDA-MB-231 breast
A549 NSCLC = system: A549 NSCLC

O=S1CCN(Cc2ccc(-c3ccc4ncnc(Nc5ccc(OCc6ccccc6)c(Cl)c5)c4c3)o2)CC1
GI50 (HOP-92 NSCLC): 4.91 µM | TGI (HOP-92 NSCLC): > 21.2 µM | GI50 (HCC-2998 colon): 7.19 µM | TGI (HCC-2998 colon): 23.4 µM | GI50 (MOLT-4 leukemia): 9.06 µM | TGI (MOLT-4 leukemia): > 25 µM | GI50 (SK-MEL-2 melanoma): 7.46 µM | TGI (SK-MEL-2 melanoma): 16.7 µM | GI50 (SNB-75 CNS): > 16.6 µM | TGI (SNB-75 CNS): > 25 µM | GI50 (ACHN renal): 0.656 µM | TGI (ACHN renal): > 25 µM | GI50 (NCI-H226 lung): > 16.5 µM | TGI (NCI-H226 lung): > 25 µM | GI50 (RXF 393 renal): > 15.3 µM | TGI (RXF 393 renal): > 25 µM | GI50 (U251 CNS): 14.9 µM | TGI (U251 CNS): > 25 µM | GI50 (NCI-H460 lung): 10.2 µM | TGI (NCI-H460 lung): > 25 µM | GI50 (CCRF-CEM leukemia): 9.07 µM | TGI (CCRF-CEM leukemia): > 25 µM | GI50 (NCI-H23 lung): 13.3 µM | TGI (NCI-H23 lung): > 25 µM | GI50 (HL-60(TB) leukemia): 10.6 µM | TGI (HL-60(TB) leukemia): > 20.7 µM | GI50 (MDA-MB-435): 8.95 µM | TGI (MDA-MB-435): > 25 µM | GI50 (HT29 colon): 6.9 µM | TGI (HT29 colon): > 18.8 µM | GI50 (UACC-62 melanoma): 10.7 µM | TGI (UACC-62 melanoma): > 23.4 µM | GI50 (SNB-19 CNS): > 25 µM | TGI (SNB-19 CNS): > 25 µM | GI50 (SW-620 colon): 8.63 µM | TGI (SW-620 colon): > 25 µM | GI50 (A498 renal): 5.82 µM | TGI (A498 renal): 24.3 µM | GI50 (IGROV1 ovarian): 0.561 µM | TGI (IGROV1 ovarian): > 25 µM | GI50 (HOP-62 NSCLC): > 25 µM | TGI (HOP-62 NSCLC): > 25 µM | GI50 (NCI/ADR-RES ovarian): 8.08 µM | TGI (NCI/ADR-RES ovarian): > 25 µM | GI50 (OVCAR-8 ovarian): 11.7 µM | TGI (OVCAR-8 ovarian): > 25 µM | GI50 (SK-OV-3 ovarian): 0.0917 µM | TGI (SK-OV-3 ovarian): > 25 µM | GI50 (BT-549 breast): 9.62 µM | TGI (BT-549 breast): > 20.5 µM | GI50 (SF-268 CNS): > 22.3 µM | TGI (SF-268 CNS): > 25 µM | GI50 (UO-31 renal): 6.32 µM | TGI (UO-31 renal): > 25 µM | GI50 (K-562 leukemia): 10.1 µM | TGI (K-562 leukemia): > 25 µM | GI50 (786-0 renal): 10.7 µM | TGI (786-0 renal): > 25 µM | GI50 (OVCAR-3 ovarian): 8.08 µM | TGI (OVCAR-3 ovarian): > 25 µM | GI50 (NCI-H522 lung): 3.68 µM | TGI (NCI-H522 lung): > 25 µM | GI50 (SK-MEL-5 melanoma): 7.9 µM | TGI (SK-MEL-5 melanoma): > 15.7 µM | GI50 (OVCAR-5 ovarian): 12.1 µM | TGI (OVCAR-5 ovarian): > 25 µM | GI50 (OVCAR-4 ovarian): 13.5 µM | TGI (OVCAR-4 ovarian): > 25 µM | GI50 (M14 melanoma): 10 µM | TGI (M14 melanoma): > 25 µM | GI50 (PC-3 prostate): 11.8 µM | TGI (PC-3 prostate): > 25 µM | GI50 (TK-10 renal): 0.116 µM | TGI (TK-10 renal): > 25 µM | GI50 (MALME-3M melanoma): 10.1 µM | TGI (MALME-3M melanoma): > 25 µM | GI50 (MCF7 breast): > 15.2 µM | TGI (MCF7 breast): > 25 µM | GI50 (HS 578T breast): > 21.6 µM | TGI (HS 578T breast): > 25 µM | GI50 (KM12 colon): 9.22 µM | TGI (KM12 colon): > 25 µM | GI50 (COLO 205 colon): 11.7 µM | TGI (COLO 205 colon): > 25 µM | GI50 (DU-145 prostate): 7.52 µM | TGI (DU-145 prostate): > 25 µM | GI50 (T-47D breast): 5.72 µM | TGI (T-47D breast): > 25 µM | GI50 (SF-295 CNS): 9.76 µM | TGI (SF-295 CNS): > 25 µM | GI50 (LOX IMVI melanoma): 8.51 µM | TGI (LOX IMVI melanoma): > 16.9 µM | GI50 (HCT-15 colon): 7.78 µM | TGI (HCT-15 colon): > 25 µM | GI50 (SN12C renal): 14.8 µM | TGI (SN12C renal): > 25 µM | GI50 (RPMI-8226 leukemia): 12.4 µM | TGI (RPMI-8226 leukemia): > 25 µM | GI50 (EKVX NSCLC): 0.112 µM | TGI (EKVX NSCLC): > 19.9 µM | GI50 (SF-539 CNS): > 15.3 µM | TGI (SF-539 CNS): > 25 µM | GI50 (UACC-257 melanoma): 8.55 µM | TGI (UACC-257 melanoma): > 25 µM | GI50 (HCT-116 colon): 11.3 µM | TGI (HCT-116 colon): > 25 µM | GI50 (SK-MEL-28 melanoma): 14 µM | TGI (SK-MEL-28 melanoma): > 25 µM | GI50 (CAKI-1 renal): 0.635 µM | TGI (CAKI-1 renal): > 25 µM | GI50 (SR leukemia): 7.57 µM | TGI (SR leukemia): > 25 µM | GI50 (MDA-MB-231 breast): 14.9 µM | TGI (MDA-MB-231 breast): > 25 µM | GI50 (A549 NSCLC): 8.02 µM | TGI (A549 NSCLC): > 25 µM
